Assay results published in patent publication US20230117324A1, “OXAZINE MONOACYLGLYCEROL LIPASE (MAGL) INHIBITORS” (Hoffmann-La Roche Inc., priority 2018, published 2023).

Biological target: T1, MAGL (recombinant wild-type) (Homo sapiens, UniProt Q99685)
T1 sequence (Q99685 1-303): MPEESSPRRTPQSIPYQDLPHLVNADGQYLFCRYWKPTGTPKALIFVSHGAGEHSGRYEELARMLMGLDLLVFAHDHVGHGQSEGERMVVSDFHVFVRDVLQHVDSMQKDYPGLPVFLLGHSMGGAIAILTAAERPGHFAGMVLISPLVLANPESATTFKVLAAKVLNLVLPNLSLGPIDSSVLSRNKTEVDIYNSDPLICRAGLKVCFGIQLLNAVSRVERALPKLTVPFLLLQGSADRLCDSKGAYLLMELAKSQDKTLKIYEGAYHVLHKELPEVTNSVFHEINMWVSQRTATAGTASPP
Assay: MAGL inhibition, 4-NPA assay (hydrolysis of 4-nitrophenylacetate, absorbance at 405 nm)
Assay type: biochemical
Conditions: 4-NPA assay (footnote [a]: values not marked [b])
Experimental: Compounds were profiled for MAGL inhibitory activity by measuring the enzymatic activity of MAGL by following the hydrolysis of 4-nitrophenylacetate resulting in 4-nitrophenol, which absorbs at 405-412 nm (G. G. Muccioli, G. Labar, D. M. Lambert, Chem. Bio. Chem. 2008, 9, 2704-2710). This assay is hereinafter abbreviated “4-NPA assay”.
The assay was carried out in 384 well assay plates (black with clear bottom, non-binding surface treated, Corning Ref. 3655) in a total volume of 40 μL. Compound dilutions were made in 100% DMSO (VWR Chemicals 23500.297) in a polypropylene plate in 3-fold dilution steps to give a final concentration range in the assay from 25 μM to 1.7 nM. 1 μL compound dilutions (100% DMSO) were added to 19 μL MAGL (recombinant wild-type) in assay buffer (50 mM TRIS (GIBCO, 15567-027), 1 mM EDTA (Fluka, 03690-100 mL)). The plate was shaked for 1 min at 2000 rpm (Variomag Teleshake) and then incubated for 15 min at RT. To start the reaction, 20 μL 4-Nitrophenlyacetate (Sigma N-8130) in assay buffer with 6% EtOH was added. The final concentrations in the assay were 1 nM MAGL and 300 μM 4-Nitrophenylacetate. After shaking (1 min, 2000 rpm) and 5 min incubation at RT, the absorbance at 405 nm was measured for a first time (Molecular Devices, SpectraMax Paradigm). A second measurement was then done after incubation for 80 min at RT. From the two measurements, the slope was calculated by subtracting the first from the second measurement.

Row | IC50 [nM] | SMILES
1 | 133 | O=C1CO[C@H]2CCN(C(=O)N3CCN(c4c[nH]c5ccc(Cl)cc45)CC3)C[C@H]2N1 (racemic) [Example 14, rac-(4aR,8aS)-6-(4-(5-Chloro-1H-indol-3-yl)piperazine-1-carbonyl)hexahydro-2H-pyrido[4,3-b][1,4]oxazin-3(4H)-one]
2 | 2100 | N#C/C(=C\N1CCN(C(=O)N2CC[C@@H]3OCC(=O)N[C@@H]3C2)CC1)c1ccccc1 (racemic) [Example 18, (E/Z)-3-[4-[rac-(4aS,8aR)-3-oxo-4,4a,5,7,8,8a-hexahydropyrido[4,3-b][1,4]oxazine-6-carbonyl]piperazin-1-yl]-2-phenylprop-2-enenitrile]
3 | 8 | O=C1CO[C@H]2CCN(C(=O)N3CCN(C(c4ccc(F)cc4)c4ccc(F)cc4)CC3)C[C@H]2N1 (relative stereo) [Example 11, (+)-cis-6-(4-(bis(4-Fluorophenyl)methyl)piperazine-1-carbonyl)hexahydro-2H-pyrido[4,3-b][1,4]oxazin-3(4H)-one]
4 | 43 | O=C1CO[C@H]2CCN(C(=O)N3CCC(c4c[nH]c5cc(F)ccc45)CC3)C[C@H]2N1 (racemic) [Example 7, rac-(4aR,8aS)-6-[4-(6-Fluoro-1H-indol-3-yl)piperidine-1-carbonyl]-4,4a,5,7,8,8a-hexahydropyrido[4,3-b][1,4]oxazin-3-one]
5 | 0.4 | Cc1cccc(C(c2ccccc2)C2CCN(C(=O)N3CC[C@@H]4OCC(=O)N[C@@H]4C3)CC2)c1 (single isomer, unassigned) [Example 80, (4aR,8aS)-6-[4-[(S or R)-m-Tolyl(phenyl)methyl]piperidine-1-carbonyl]-4,4a,5,7,8,8a-hexahydropyrido[4,3-b][1,4]oxazin-3-one]
6 | 3000 | CC(c1ccccc1)N1CCN(C(=O)N2CC[C@@H]3OCC(=O)N[C@@H]3C2)CC1 (mixture of isomers) [Example 15, rac-(4aR,8aS)-6-(4-(1-Phenylethyl)piperazine-1-carbonyl)hexahydro-2H-pyrido[4,3-b][1,4]oxazin-3(4H)-one]
7 | 1 | C[C@@H](Oc1ccc(F)cc1Cl)C1CCN(C(=O)N2CC[C@@H]3OCC(=O)N[C@@H]3C2)CC1 (single isomer, unassigned) [Example 34, (+) or (−)-cis-6-(4-((R or S)-1-(2-Chloro-4-fluorophenoxy)ethyl)piperidine-1-carbonyl)hexahydro-2H-pyrido[4,3-b][1,4]oxazin-3(4H)-one]
8 | 3 | O=C1CO[C@H]2CCN(C(=O)N3CCC(c4cn(CC5COC5)c5ccc(Cl)cc45)CC3)C[C@H]2N1 (single isomer, unassigned) [Example 23, (+)-or (−)-cis-6-(4-(5-Chloro-1-(oxetan-3-ylmethyl)-1H-indol-3-yl)piperidine-1-carbonyl)hexahydro-2H-pyrido[4,3-b][1,4]oxazin-3(4H)-one]
9 | 2 | O=C1CO[C@H]2CCN(C(=O)N3CCC(c4cn(C(CO)CCl)c5ccc(Cl)cc45)CC3)C[C@H]2N1 (mixture of isomers) [Example 20, rac-(4aR,8aS)-6-(4-(5-Chloro-1-(1-chloro-3-hydroxypropan-2-yl)-1H-indol-3-yl)piperidine-1-carbonyl)hexahydro-2H-pyrido[4,3-b][1,4]oxazin-3(4H)-one]
10 | 51 | C[C@H](Oc1ccc(F)cc1Cl)C1CCN(C(=O)N2CC[C@@H]3OCC(=O)N[C@@H]3C2)CC1 (single isomer, unassigned) [Example 33, (+) or (−)-cis-6-(4-((S or R)-1-(2-Chloro-4-fluorophenoxy)ethyl)piperidine-1-carbonyl)hexahydro-2H-pyrido[4,3-b][1,4]oxazin-3(4H)-one]
11 | 1200 | O=C1CO[C@H]2CCN(C(=O)N3CC(C(c4ccc(F)cc4)c4ccc(F)cc4)C3)C[C@H]2N1 [Example 82, (4aR,8aS)-6-(3-(bis(4-Fluorophenyl)methyl)azetidine-1-carbonyl)hexahydro-2H-pyrido[4,3-b][1,4]oxazin-3(4H)-one]

Continued, compound first:

Row | SMILES | IC50 [nM]
12 | O=C1CO[C@@H]2CCN(C(=O)N3CCN([C@@H](c4ccccc4)c4ccc(F)cc4)CC3)C[C@@H]2N1 (racemic) [Example 17, rac-(4aR,8aS)-6-[4-[rac-(4-Fluorophenyl)-phenylmethyl]piperazine-1-carbonyl]-4,4a,5,7,8,8a-hexahydropyrido[4,3-b][1,4]oxazin-3-one] | 6
13 | CC(Oc1ccc(F)cc1Cl)C1CCN(C(=O)N2CC[C@@H]3OCC(=O)N[C@@H]3C2)CC1 (mixture of isomers) [Example 28, rac-(4aR,8aS)-6-(4-(1-(2-Chloro-4-fluorophenoxy)ethyl)piperidine-1-carbonyl)hexahydro-2H-pyrido[4,3-b][1,4]oxazin-3(4H)-one] | 2
14 | CCc1cncc(C2CCN(C(=O)N3CC[C@@H]4OCC(=O)N[C@@H]4C3)CC2)c1 (single isomer, unassigned) [Example 40, (+) or (−)-cis-6-(4-(5-Ethylpyridin-3-yl)piperidine-1-carbonyl)hexahydro-2H-pyrido[4,3-b][1,4]oxazin-3(4H)-one] | 683
15 | O=C1CO[C@H]2CCN(C(=O)N3CCN([C@H](c4ccccc4)c4ccc(Cl)cc4)CC3)C[C@H]2N1 (racemic) [Example 10, rac-(4aR,8aS)-6-(4-(rac-(4-Chlorophenyl)(phenyl)methyl)piperazine-1-carbonyl)hexahydro-2H-pyrido[4,3-b][1,4]oxazin-3(4H)-one] | 5
16 | O=C1CO[C@H]2CCN(C(=O)N3CCC([C@H](CCO)c4ccc(F)cc4)CC3)C[C@H]2N1 (single isomer, unassigned) [Example 32, (−)-(4aR,8aS)--6-(4-((S or R)-1-(4-Fluorophenyl)-3-hydroxypropyl)piperidine-1-carbonyl)hexahydro-2H-pyrido[4,3-b][1,4]oxazin-3(4H)-one] | 203
17 | O=C1CO[C@H]2CCN(C(=O)N3CCC(c4cncc(C(F)(F)F)c4)CC3)C[C@H]2N1 [Example 29, (4aR,8aS)-6-(4-(5-(Trifluoromethyl)pyridin-3-yl)piperidine-1-carbonyl)hexahydro-2H-pyrido[4,3-b][1,4]oxazin-3(4H)-one] | 703
18 | COC(c1ccc(F)cc1)C1CCN(C(=O)N2CC[C@@H]3OCC(=O)N[C@@H]3C2)CC1 (mixture of isomers) [Example 8, rac-(4aR,8aS)-6-(4-((4-Fluorophenyl)(methoxy)methyl)piperidine-1-carbonyl)hexahydro-2H-pyrido[4,3-b][1,4]oxazin-3(4H)-one] | 91
19 | O=C1CO[C@@H]2CCN(C(=O)N3CCC(C(c4ccc(F)cc4)c4ccc(F)cc4)CC3)C[C@@H]2N1 (single isomer, unassigned) [Example 36, (+) or (−)-cis-6-(4-(Bis(4-fluorophenyl)methyl)piperidine-1-carbonyl)hexahydro-2H-pyrido[4,3-b][1,4]oxazin-3(4H)-one] | 85
20 | O=C1CO[C@H]2CCN(C(=O)N3CCC(c4cn(C5CC5)c5ccc(Cl)cc45)CC3)C[C@H]2N1 (single isomer, unassigned) [Example 19, (+)-or (−)-cis-6-(4-(5-Chloro-1-cyclopropyl-1H-indol-3-yl)piperidine-1-carbonyl)hexahydro-2H-pyrido[4,3-b][1,4]oxazin-3(4H)-one] | 1
21 | O=C1CO[C@H]2CCN(C(=O)N3CCC(C(F)(F)c4ccc(Cl)cc4)CC3)C[C@H]2N1 (single isomer, unassigned) [Example 37, (+) or (−)-cis-6-(4-((4-Chlorophenyl)difluoromethyl)piperidine-1-carbonyl)hexahydro-2H-pyrido[4,3-b][1,4]oxazin-3(4H)-one] | 34
